Key:
[1] = system: NASH mice; test: Liver TG content in NASH mice; format: in vivo, C57BL/6J mice; details: mean±SD, Vehicle 58.8±26.9, no significant difference
Experimental: Liver total lipid-extracts were obtained from right lobes by Folch's method (Folch J. et al, J. Biol. Chem. 1957; 226 (1): 497). The livers were homogenized in chloroform-methanol (2:1, v/v) and incubated overnight at room temperature. After washing with chloroform-methanol-water (8:4:3, v/v/v), the extracts were evaporated to dryness, and dissolved in isopropanol. Liver TG levels were measured by Triglyceride E-test (Wako Pure Chemical Industries). Extracts were diluted 2- to 4-fold in isopropanol when the TG contents exceed the limit of detection.

[2] = system: TIMP-1; test: Quantitative RT-PCR of liver, TIMP-1 mRNA, NASH mice; format: in vivo, C57BL/6J mice; details: 13 weeks of age, mean ± SD, n = 8, Vehicle 7.74 ± 4.15, no significant difference
Experimental: (§1) Total RNA was extracted from liver samples using RNAiso (Takara Bio, Japan) according to the manufacturer's instructions. One μg of RNA was reverse-transcribed using a reaction mixture containing 4.4 mM MgCl2 (Roche, Switzerland), 40 U RNase inhibitor (Toyobo, Japan), 0.5 mM dNTP (Promega, USA), 6.28 μM random hexamer (Promega), 5× first strand buffer (Promega), 10 mM dithiothreitol (Invitrogen, USA) and 200 U MMLV-RT (Invitrogen) in a final volume of 20 μL. The reaction was carried out for 1 hour at 37° C., followed by 5 minutes at 99° C. Real-time PCR was performed using real-time PCR DICE and SYBR premix Taq (Takara Bio). To calculate the relative mRNA expression level, the expression of each gene was normalized to that of reference gene 36B4 (gene symbol: Rplp0). Information of PCR-primer sets and the plate layout was described in Table 1.

[3] = system: NASH mice; test: Liver weight and liver-to-body weight ratio in NASH mice; format: in vivo, C57BL/6J mice; details: mean±SD; for Liver-to-body weight ratio: Vehicle 8.1±1.1, no significant difference; for Mean liver weight: Vehicle 1870±418, no significant difference
Experimental: (§2) The viability, clinical signs and behavior were monitored daily. Body weight was recorded daily before drug administration. […] The animals were sacrificed by exsanguination through direct cardiac puncture under ether anesthesia (Wako Pure Chemical Industries).

[4] = system: NASH mice; test: HE staining and NAFLD Activity score in NASH mice; details: for NAFLD Activity score (NAS): mean±SD, Vehicle 5.9±1.0, tended to decrease
Experimental: NASH was induced in 40 male mice by a single subcutaneous injection of 200 μg streptozotocin (Sigma-Aldrich, USA) 2 days after birth and feeding with high fat diet (HFD, 57 kcal % fat, cat# HFD32, CLEA Japan, Japan) after 4 weeks of age. The mice were randomized into 5 groups of 8 mice at 9 weeks of age. Eight male littermates, fed with normal diet (cat# CE-2, CLEA Japan) without streptozotocin treatment, were used for the Normal group.
The test substance solution was filled in the osmotic pumps at concentrations determined based on the individual body weight at the start of treatment (day 0). Telmisartan was administered by oral route in a volume of 10 mL/kg body weight.
Telmisartan was administered once daily at a dose of 10 mg/kg body weight.
For HE staining, sections were cut from paraffin blocks of liver tissue prefixed in Bouin's solution and stained with Lillie-Mayer's Hematoxylin (Muto Pure Chemicals, Japan) and eosin solution (Wako Pure Chemical Industries).

[5] = system: Collagen Type 3; test: Quantitative RT-PCR of liver, Collagen Type 3 mRNA, NASH mice; format: in vivo, C57BL/6J mice; details: 13 weeks of age, mean ± SD
Experimental: as §1

[6] = Body weight and general condition of NASH mice; details: for Mean body weight at sacrifice / Mean body weight during the treatment period: NASH mice; for Mean body weight at sacrifice: mean±SD, Vehicle 22.9±2.9, no significant difference; for Mean body weight during the treatment period: versus vehicle group
Experimental: as §2

[7] = system: NASH mice; test: Sirius red staining, fibrosis area in liver of NASH mice; format: in vivo, C57BL/6J mice; details: for Sirius red-positive area (fibrosis area): NASH mice, 13 weeks of age, mean ± SD, n = 8, Vehicle 1.02 ± 0.33
Experimental: C57BL/6J mice (15-day pregnant female) were obtained from Charles River Laboratories Japan (Kanagawa, Japan). All animals used in this study were housed and cared for in accordance with the Japanese Pharmacological Society Guidelines for Animal Use. The animals were maintained in a SPF facility under controlled conditions of temperature (23±2° C.), humidity (45±10%), lighting (12-hour artificial light and dark cycles; light from 8:00 to 20:00) and air exchange. A high pressure (20±4 Pa) was maintained in the experimental room to prevent contamination of the facility. The animals were housed in polycarbonate cages KN-600 (Natsume Seisakusho, Japan) with a maximum of 4 mice per cage. Sterilized PULMASμ (Material Research Center, Japan) was used for bedding and replaced once a week. Sterilized solid HFD was provided ad libitum, being placed in the metal lid on top of the cage. Pure water was provided ad libitum from a water bottle equipped with a rubber stopper and a sipper tube. Water bottles were replaced once a week, cleaned and sterilized in autoclave and reused. Mice were identified by numbers engraved on earrings. Each cage was labeled with a specific identification code.

[8] = system: NASH mice; test: Whole blood glucose in NASH mice; format: in vivo, C57BL/6J mice; details: mean±SD
Experimental: (§3) Non-fasting blood glucose was measured in whole blood using Life Check (EIDIA, Japan). For serum biochemistry, blood was collected in polypropylene tubes without anticoagulant and kept at room temperature for 30 minutes, followed by at 4° C. for 1 hour. The blood samples were then centrifuged at 1,000×g for 15 minutes at 4° C. The supernatant was collected and stored at −80° C. until use. Serum ALT and TG levels were measured by FUJI DRI-CHEM 7000 (Fujifilm, Japan).

[9] = system: α-SMA; test: Quantitative RT-PCR of liver, α-SMA mRNA, NASH mice; format: in vivo, C57BL/6J mice; details: 13 weeks of age, mean ± SD
Experimental: as §1

[10] = system: NASH mice; test: Serum ALT in NASH mice; format: in vivo, C57BL/6J mice; details: mean±SD, Vehicle 58±29, no significant difference
Experimental: as §3

[11] = high dose 3 mg/kg/day s.c. infusion 9-13 wks
[12] = low dose 1 mg/kg/day s.c. infusion 9-13 wks

## C[C@H]1[C@H]2N(C(=O)CN(C)N2C(=O)NCc2ccccc2)[C@@H](Cc2ccc(OP(=O)(O)O)cc2)C(=O)N1Cc1cccc2cccnc12 [Compound A, 4-(((6S,9S,9aS)-1-(benzylcarbamoyl)-2,9-dimethyl-4,7-dioxo-8-(quinolin-8-ylmethyl)octahydro-1H-pyrazino[2,1-c][1,2,4]triazin-6-yl)methyl)phenyl dihydrogen phosphate]
[1]; [11]
  Liver TG content: 67.8 ± 24.0 mg/g
[1]; [12]
  Liver TG content: 64.8 ± 25.6 mg/g
[2]; high dose 3 mg/kg/day s.c. infusion 9-13 wks, 3 mg/kg/day
  TIMP-1 mRNA expression level (relative, normalized to 36B4): 6.73±2.23
[2]; low dose 1 mg/kg/day s.c. infusion 9-13 wks, 1 mg/kg/day
  TIMP-1 mRNA expression level (relative, normalized to 36B4): 5.35±2.82
[3]; [11]
  Liver-to-body weight ratio: 8.5±0.6%
  Mean liver weight: 2024 ± 159 mg
[3]; [12]
  Liver-to-body weight ratio: 8.0±0.8%
  Mean liver weight: 1803 ± 219 mg
[4]; [11]
  HE-stained liver sections, difference from Vehicle group: No obvious difference
  NAFLD Activity score (NAS): 5.1±0.6
[4]; low dose 1 mg/kg/day s.c. infusion 9-13 wks, compared with the Vehicle group
  HE-stained liver sections: lobular inflammation: improved
[4]; [12]
  NAFLD Activity score (NAS): 4.8±0.9
[5]; high dose 3 mg/kg/day s.c. infusion 9-13 wks, n = 8, Vehicle 3.09 ± 1.51, tended to be down-regulated, 3 mg/kg/day
  Collagen Type 3 mRNA expression level (relative, normalized to 36B4): 2.22±0.46
[5]; low dose 1 mg/kg/day s.c. infusion 9-13 wks, n = 8, Vehicle 3.09 ± 1.51, significantly down-regulated, 1 mg/kg/day
  Collagen Type 3 mRNA expression level (relative, normalized to 36B4): 1.93±0.37
[6]; [11]
  Mean body weight at sacrifice: 23.7 ± 1.1 g
[6]; high dose 3 mg/kg/day s.c. infusion
  Mean body weight during the treatment period: no significant differences
[6]; [12]
  Mean body weight at sacrifice: 22.6 ± 2.6 g
[6]; low dose 1 mg/kg/day s.c. infusion
  Mean body weight during the treatment period: no significant differences
[6]; any of the animals (all groups), throughout the treatment period
  General condition: No deterioration
[7]; high dose 3 mg/kg/day continuous s.c. infusion 9-13 wks, significantly decreased, 3 mg/kg/day
  Sirius red-positive area (fibrosis area): 0.67±0.21%
[7]; low dose 1 mg/kg/day continuous s.c. infusion 9-13 wks, no significant difference, 1 mg/kg/day
  Sirius red-positive area (fibrosis area): 0.82±0.31%
[7]; NASH rat model as printed in the legend, FIG. 1 shows high-dose 3 mg/kg/day versus Vehicle
  Fibrosis (FIG. 1 legend): reduces fibrosis
[8]; high dose 3 mg/kg/day s.c. infusion 9-13 wks, Vehicle 605±134, tended to increase
  Whole blood glucose (non-fasting): 791 ± 54 mg/dL
[8]; low dose 1 mg/kg/day s.c. infusion 9-13 wks, Vehicle 605±134, no significant difference
  Whole blood glucose (non-fasting): 677 ± 36 mg/dL
[9]; high dose 3 mg/kg/day s.c. infusion 9-13 wks, n = 8, Vehicle 3.19 ± 1.81, no significant difference, 3 mg/kg/day
  α-SMA mRNA expression level (relative, normalized to 36B4): 2.23±1.23
[9]; low dose 1 mg/kg/day s.c. infusion 9-13 wks, n = 8, Vehicle 3.19 ± 1.81, tended to be down-regulated, 1 mg/kg/day
  α-SMA mRNA expression level (relative, normalized to 36B4): 1.88±0.60
[10]; [11]
  Serum ALT: 49±17 U/L
[10]; [12]
  Serum ALT: 45±17 U/L
